Laboratory results as given in US20250073209A1, “COVALENT TARGETING OF RhoA FOR CANCER THERAPY” (The University of Hong Kong, priority 2023, published 2025).

What was measured:
Rac1 = Rac1 (Homo sapiens, UniProt P63000); assay: Rac1-GTP PAK-PBD pull-down in HT29 cells; assay type: cell-based; set-up: endogenous in cells; host or cells: HT29; settings: HT29, complete medium 24 h
From the text: The procedure is similar to that for RhoA-GTP assay, except that Rac1-GTP and Cdc42-GTP in CRC cells were first enriched by Rac1 Pull-Down Activation Assay Biochem Kit (Cytoskeleton #BK035) instead of using the RhoA kit. The enriched Rac1-GTP and Cdc42-GTP were then immunoblotted by Rac1/2/3 antibody (CST #2465) and Cdc42 antibody (CST #2462) respectively.
GTP loading onto RhoA is critical for the protein activation and mediating downstream signals. In view of the inhibitions of GDP-to-GTP exchange of RhoA by CL16 in vitro as discussed above, effects of CL16 on RhoA biology in colorectal cancer cells were examined. In the serum starvation-re-stimulation experiment, HCT116 cells were grown in serum-free medium with CL16, Rhosin or solvent control for 24 h, followed by stimulation with 10% FBS for 10 min. The cells were then lysed and the RhoA activity was assayed by the level of RhoA-GTP, which is the active form of RhoA. […] HT29 cells were incubated with solvent vehicle, CL16 or Rhosin in complete medium for 24 h. The cells were then washed, lysed and subjected to rhotekin pull-down for blotting RhoA-GTP, or PAK-PBD pull-down for blotting Rac1-GTP and Cdc42-GTP. Confocal fluorescence images from HCT116 and HT29 cells expressing FRET RhoA-biosensor in the serum starvation-restimulation experiment were taken.

HCT116 cells = assay: F-actin staining (Alexa Fluor 488-Phalloidin), serum re-stimulation; assay type: cell-based, human; settings: HCT116, 24 h, 10% FBS re-stimulation 10 min
Procedure: To further validate the inhibitory effects of CL16 on RhoA, HCT116 and HT29 cells were transfected with a FRET-RhoA biosensor, where cells with elevated RhoA activity would show a higher FRET/mTFP1. Specifically, HCT116 cells transfected with FRET-RhoA biosensor were treated with CL16 or solvent in serum-free medium for 24 h, washed with PBS, re-stimulated with 10% FBS for 10 min, washed, and then imaged in HBSS by confocal fluorescence microscopy. […] In addition, HCT116 cells were serum-starved and treated with CL16 or Rhosin for 24 h, followed by 10% FBS re-stimulation for 10 min. The cells were then washed and fixed by 4% paraformaldehyde, washed with PBS and stained with Alexa Fluor 488-Phalloidin in PBS (1:20, v/v) at room temperature for 15 min. The cells were washed with PBS, incubated with Hoechst (8.2 μM) in PBS for 15 min, washed and then imaged in PBS by confocal fluorescence microscopy. […] Since RhoA regulates cytoskeletal dynamics and RhoA activation can induce the formation of contractile F-actin, the reduction of F-actin fibers by CL16 treatment supports its inhibitory roles on RhoA signaling.

SL4 cells = assay: MTT assay on mouse CRC cells SL4; assay type: cell-based; settings: complete medium 48 h
Procedure: FIG. 13A is a graph showing the cell viability, which was examined by MTT assay. SL4 cells were treated with solvent vehicle or CL16 in complete medium for 48 h.
Antitumor effects of CL16 in an immunocompetent, orthotopic mouse CRC model, which was established by the inoculation of mouse CRC cells, SL4, intracecally were examined (FIG. 20). […] Immunohistochemistry staining of CD3, CD4, CD8, Ki67 was conducted, with cleaved caspase-3 and VEGFR2 on tumor tissues from the vehicle- or CL16-treated mice.

[1] = tested on: HT29 cells expressing RhoA WT; assay: Wound healing assay on HT29 cells expressing RhoA WT; assay type: cell-based, human; settings: 48 h
Procedure: For wound healing assay, HT29 cells were seeded in 90% confluency, a wound was scratched using a P-20 tip the next day. Cell debris was washed with PBS then aspirated. Then, complete DMEM medium with CL16 or Rhosin with corresponding concentration was added to the cells. Wound closure was recorded every 24 hours under light microscope with 10× objective and measurement of wound area was made by ImageJ.
The effects of CL16 in HT29 cells expressing RhoA WT protein and HT29 cells with RhoA C16 Å knock-in by CRISPR-Cas9 were investigated, respectively, to validate the molecular mechanism of RhoA inhibition and anti-cancer properties from CL16. […] HT29 cells expressing RhoA WT or C16 Å protein were incubated with solvent vehicle, CL16 or Rhosin in complete medium for 24 h. The cells were then washed, lysed, subjected to rhotekin pull-down and immunoblotted. […] Wound healing assay on HT29 cells expressing RhoA WT or C16 Å protein were incubated with solvent vehicle, CL16 or Rhosin in complete medium for 48 h (FIGS. 19A and 19B).

## O=C(CCl)N1N=C(c2cc3ccccc3o2)CC1c1ccco1 (stereo not shown) [CL16]
Rac1
  Rac1 activity (Rac1-GTP): no significant changes
HCT116 cells
  concentration from which reduction of F-actin fibers was observed: ≥ 5 µM
SL4 cells
  viability of SL4: significantly decreased the viability
[1]
  cell migration: decrease in cell migration
